Data reported in patent publication US8283323B2, “Withanolide compounds as inhibitors of fibrosis and identification of molecular targets for anti-fibrotic drug development” (University of Kentucky Research Foundation, priority 2006, dated 2012).

Columns and labels:
transketolase (TKT) = assay: western blot with anti-mouse TKT antibody and immunohistochemical analysis of mouse eyes; format: in vivo, mice; conditions: injured corneas; for TKT detected by anti-mouse TKT antibody on western blot (longer film exposure): WA 2.5 mg/kg/d or epoxomicin 2.0 mg/kg/d, not detected in vehicle
Protocol: (§1) To investigate the levels and timing of expression of TKT we performed time-course experiments using the angioinflammation corneal model of tissue repair. Groups of mice ([…]) were injured and treated every day with vehicle (Veh), 2.5 mg/kg/d WA or 2.0 mg/kg/d epoxomicin (20S proteasome inhibitor) and sacrificed on day 4 and 6 post-inflammation. In a similar experiment, mice were treated every day with vehicle or 2.5 mg/kg/d WA and sacrificed on days 3 and 5 post-injury. Equal amounts of protein from pooled samples of each group were subjected to immunoblotting or Coomassie blue staining after fractionation on 4-20% gradient polyacrylamide gels (BioRad).
(§2) The western blots of the corneal samples were re-probed with an anti-mouse TKT antibody. […] Because of the strong Ub-immunoreactivity of TKT in injured corneas, we speculate that this protein's N-terminal antigenic site is being masked by ubiquitination in the injury-related samples (the TKT antibody reacts with the N-terminal 20-amino acid portion of native TKT).
To investigate the localization of TKT, immunohistochemical analysis of mouse eyes was conducted. TKT expression is localized to the epithelium of uninjured mouse eyes, whereas TKT expression in corneas of 4 d vehicle-treated mice is almost undetectable.

native I-kappa-B-alpha = assay: western blotting of corneal buttons from injured healing corneas: I-kappa-B-alpha; format: in vivo, mice; conditions: different doses i.p. daily for first 4 days, corneas taken day 7, western blot
Protocol: (§3) The corneas of C57BL6 mice under anesthesia were injured by application of 0.1 N sodium hydroxide and subsequently the epithelial cell layer from the cornea and limbus was removed by scraping. Withaferin A (WA) (2.5 mg/kg/d; 4 mice) or vehicle (DMSO; 4 mice) was provided daily thereafter by i.p. injection for 6 d. Digital images of the corneas were obtained to assess the extent of tissue pathology. […] These compelling results invoke the query whether WA targets the UPP in vivo. Mice (4 per group) were injured and treated for the first 4 days with a different dose of WA or vehicle daily by i.p. injection. On day 7, mice were sacrificed and corneal buttons were isolated from injured healing corneas; equal amounts of protein from each group were analyzed by western blotting. Uninjured fellow eyes from vehicle-treated mice served as controls.

[1] = system: ubiquitin proteasome pathway (UPP); assay: UPP functions in the alkali burn injury model of corneal angiofibrotic disease; format: in vivo
Source text: The abundant corneal protein tissue transketolase (TKT) is believed to play an important role in corneal homeostasis. TKT is also a target of the UPP and its reduced expression is believed to contribute to corneal fibrosis. In the present invention, targeting the UPP in injured tissue can redirect the fibrotic repair process to acquire regenerative healing. Withanolides and related compounds, such as withaferin A, withanolide D and ixocarpalactone, are small molecule inhibitors that have potent UPP-targeting activity. […] There is also a reduction in the levels of ubiquitinated transketolase (TKT), an abundant corneal protein implicated in fibrogenesis.

[2] = system: cornea injured by 0.1 N sodium hydroxide (corneal opacity, neovascularization); assay: alkali burn corneal injury model, digital images of corneas; format: in vivo, C57BL6 mice; conditions: 2.5 mg/kg/d i.p. daily for 6 d after alkali burn, versus vehicle (DMSO)
Protocol: as §3

HO-1 = assay: western blotting of corneal buttons from injured healing corneas: HO-1; format: in vivo, mice; conditions: i.p. daily for first 4 days, corneas taken day 7, western blot
Protocol: as §3

[3] = system: ubiquitinated transketolase (70 kDa ubiquitinated protein); assay: immunoblotting / Coomassie blue staining of corneal protein, angioinflammation corneal model: ubiquitinated transketolase; format: in vivo, mice
Protocol: as §1, §2

Compound | TKT detected by anti-mouse TKT antibody on western blot (longer film exposure) (transketolase (TKT)) | TKT staining in cornea, immunohistochemical analysis (transketolase (TKT); 4 d, compared with uninjured and vehicle-treated) | corneal expression of native I-kappa-B-alpha (native I-kappa-B-alpha) | UPP functions [1] | corneal opacity [2] | neovascularization (growth of new blood vessels in cornea) [2] | HO-1 expression in cornea (HO-1) | expression of 70 kDa ubiquitinated protein (UbTKT) in cornea, ubiquitin immunoblot ([3]; 2.5 mg/kg/d every day, injured corneas, versus vehicle) | levels of the 70 kDa protein by Coomassie blue staining ([3]; uninjured, vehicle and WA-treated samples, 3-, 5-, 4- and 6-day time-points)
CC[C@H](C)[C@H](NC(=O)[C@H]([C@@H](C)CC)N(C)C(C)=O)C(=O)N[C@H](C(=O)N[C@@H](CC(C)C)C(=O)[C@@]1(C)CO1)[C@@H](C)O [epoxomicin, reference compound] | presence of the TKT |  |  |  |  |  |  |  | 
CC1=C(CO)C(=O)O[C@@H]([C@@H](C)[C@H]2CC[C@H]3[C@@H]4C[C@H]5O[C@]56[C@@H](O)C=CC(=O)[C@]6(C)[C@H]4CC[C@]23C)C1 [WA, Withaferin A] | presence of the TKT | present, although at levels lower than that of uninjured cornea | dose-dependently inhibits | potent downregulation | dramatically reduced | dramatically reduced | potently downregulated HO-1 expression to almost undetectable levels | abundantly expressed in vehicle-treated mouse corneas compared to corneas from WA-treated mice | not significantly altered
